Patent US5521177A, “Benzimidazoles, pharmaceutical compositions containing these compounds and processes for preparing them” (Dr. Karl Thomae GmbH, priority 1992, dated 1996)

biological target: T1, Angiotensin-II-Receptor (Rattus norvegicus, UniProt P25095); experiment: Angiotensin-II-Receptor Bonding ([125I]-angiotensin-II displacement, rat's lung homogenate); assay type: binding; settings: 50 pM [125I]-angiotensin-II, 60 minutes at 37° C., pH 7.40
T1 construct: The tissue (rat's lung) is homogenised in Tris buffer; from tissue; host or cells: rat lung homogenate
T1 sequence (P25095 1-359): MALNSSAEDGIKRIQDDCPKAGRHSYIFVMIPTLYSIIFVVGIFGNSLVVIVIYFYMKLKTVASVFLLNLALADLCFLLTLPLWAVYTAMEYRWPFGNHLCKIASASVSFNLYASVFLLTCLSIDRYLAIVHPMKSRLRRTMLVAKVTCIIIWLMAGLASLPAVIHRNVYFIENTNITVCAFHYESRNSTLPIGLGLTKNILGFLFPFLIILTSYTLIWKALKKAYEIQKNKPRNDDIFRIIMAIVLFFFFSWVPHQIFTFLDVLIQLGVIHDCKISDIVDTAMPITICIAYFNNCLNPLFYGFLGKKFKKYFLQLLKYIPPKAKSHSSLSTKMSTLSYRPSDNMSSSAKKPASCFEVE
Protocol: Description of Method: Angiotensin-II-Receptor Bonding
The tissue (rat's lung) is homogenised in Tris buffer (50 mMol Tris, 150 mMol NaCl, 5 mMol EDTA, pH 7.40) and centrifuged twice for 20 minutes each time at 20,000×g. The finished pellet is resuspended in incubation buffer (50 mMol Tris, 5 mMol MgCl2, 0.2% BSA, pH 7.40) 1:75, based on the moist weight of the tissue. Each 0.1 ml of homogenate is incubated for 60 minutes at 37° C. with 50 pM [^125 I]-angiotensin-II (NEN, Dreieich, FRG) and increasing concentrations of the test substance in a total volume of 0.25 ml. The incubation is ended by rapid filtration through glass fibre filter mats. The filters are each washed with 4 ml of ice cold buffer (25 mMol Tris, 2.5 mMol MgCl2, 0.1% BSA, pH 7.40). The bound radioactivity is measured in a gamma-counter. The corresponding IC50 value is determined from the dosage-activity curve.
Substances A to H show the following IC50 values in the test described: […]

Structure (SMILES) | IC50
CCCc1nc2c(C)cc(NC(=C[N+](=O)[O-])N(C)C)cc2n1Cc1ccc(-c2ccccc2-c2nnn[nH]2)cc1 [Substance F, 4'-[[2-n-propyl-4-methyl-6-(1,1-dimethylamino-2-nitro-etheneamino) -1H-benzimidazol-1-yl]-methyl]-2-(1H-tetrazol-5-yl)-biphenyl] | 2 nM
CCc1nc2c(C)cc(Nc3c(N(C)C)c(=O)c3=O)cc2n1Cc1ccc(-c2ccccc2C(=O)O)cc1 [Substance G, 4'-[[2-ethyl-4-methyl-6-[(2-dimethylamino-3,4-dioxo-1-cyclobuten-1-yl) -amino]-1H-benzimidazol-1-yl]-methyl]-biphenyl-2-carboxylic acid] | 17 nM
CCCc1nc2c(C)cc(NC(=NC#N)N(C)C)cc2n1Cc1ccc(-c2ccccc2-c2nnn[nH]2)cc1 [Substance B, 4'-[[2-n-propyl-4-methyl-6-(2-cyano-3,3-dimethyl-guanidino) -1H-benzimidazol-1-yl]-methyl]-2-(1H-tetrazol-5-yl)-biphenyl] | 3 nM
CCc1nc2c(C)cc(NC(=NS(C)(=O)=O)N(C)C)cc2n1Cc1ccc(-c2ccccc2-c2nnn[nH]2)cc1 [Substance H, 4'-[[2-ethyl-4-methyl-6-(3,3-dimethyl-2-methylsulphonyl-guanidino) -1H-benzimidazol-1-yl]methyl]-2-(1H-tetrazol-5-yl)-biphenyl] | 4 nM
CCCc1nc2c(C)cc(NC(=NS(N)(=O)=O)NC)cc2n1Cc1ccc(-c2ccccc2C(=O)O)cc1 [Substance E, 4'-[[2-n-propyl-4-methyl-6-(3-methyl-2-amidosulphonylguanidino) -1H-benzimidazol-1-yl]methyl]-biphenyl-2-carboxylic acid] | 56 nM

The remaining lines, values ahead:

IC50 | Structure (SMILES)
64 nM | CCCc1nc2c(C)cc(NC(=C(C#N)C#N)N(C)C)cc2n1Cc1ccc(-c2ccccc2C(=O)O)cc1 [Substance C, 4'-[[2-n-propyl-4-methyl-6-(2,2-dicyano-1-dimethylamino-etheneamino) -1H-benzimidazol-1-yl]-methyl]-biphenyl-2-carboxylic acid]
11 nM | CCCc1nc2c(C)cc(NC(=NC#N)NC)cc2n1Cc1ccc(-c2ccccc2C(=O)O)cc1 [Substance A, 4'-[[2-n-Propyl-4-methyl-6-(2-cyano-3-methyl-guanidino)-1H-benzimidazol-1-yl]-methyl]-biphenyl-2-carboxylic acid]
13 nM | CCCc1nc2c(C)cc(NC(=C[N+](=O)[O-])N(C)C)cc2n1Cc1ccc(-c2ccccc2C(=O)O)cc1 [Substance D, 4'-[[2-n-propyl-4-methyl-6-(1-dimethylamino-2-nitro-etheneamino) -1H-benzimidazol-1-yl]methyl]-biphenyl-2-carboxylic acid]
